# What was measured:
# Type in all cases: cell-based
# Bacillus = test: Bactericidal activity on agar (concentration of complete growth inhibition); conditions: % bezogen auf den Wirkstoff; am 5. Tag; listed as Kaliumsalz
# Micrococcus = test: as above; conditions: % bezogen auf den Wirkstoff; am 5. Tag; listed as Kaliumsalz
# Fusarium moniliforme = test: Mycelial growth inhibition on agar (contact activity); conditions: Fusarium verticillioides, 120 h, Kartoffel-Glukose-Nährmedium, read-out: Myzelhemmung in %
# Fusarium sambucinum = test: as above; conditions: Fusarium sambucinum, 120 h, Kartoffel-Glukose-Nährmedium, read-out: Myzelhemmung in %
# Botrytis cinerea = test: as above; conditions: 120 h, Kartoffel-Glukose-Nährmedium, read-out: Myzelhemmung in %
# Summary of the method: (§1)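 Compound dissolved in water and mixed into potato-glucose agar poured into dishes. Mycelium stab-inoculated after 24 h, then incubated 5 days at 24–26 °C. Colony diameters measured on day 5, and % mycelial growth inhibition calculated by Abbott's formula.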
# Verticillium dahliae = test: as above; conditions: 120 h, Kartoffel-Glukose-Nährmedium, read-out: Myzelhemmung in %
# Summary of the method: as §1
# Venturia inaegualis = test: as above; conditions: 120 h, Kartoffel-Glukose-Nährmedium, read-out: Myzelhemmung in %
# Summary of the method: as §1
smiles,measurement,setting,value
C=COCCNC(=S)S [Kalium-N-(vinyloxyäthyl)dithiocarbamat],"Konzentrationen, welche das Bakterienwachstum völlig (100 %) hemmen",Bacillus,"0,05%"
same,"Konzentrationen, welche das Bakterienwachstum völlig (100 %) hemmen",Micrococcus,"0,05%"
same,inhibition of growth at 0.01 %,"Fusarium moniliforme; Wirkstoffkonzentration 0,01 %",100%
same,inhibition of growth at 0.003 %,"Fusarium moniliforme; Wirkstoffkonzentration 0,003 %",100%
same,inhibition of growth at 0.01 %,"Fusarium sambucinum; Wirkstoffkonzentration 0,01 %",100%
same,inhibition of growth at 0.003 %,"Fusarium sambucinum; Wirkstoffkonzentration 0,003 %",100%
same,inhibition of growth at 0.01 %,"Botrytis cinerea; Wirkstoffkonzentration 0,01 %",100%
same,inhibition of growth at 0.003 %,"Botrytis cinerea; Wirkstoffkonzentration 0,003 %",100%
same,inhibition of growth at 0.01 %,"Verticillium dahliae; Wirkstoffkonzentration 0,01 %",100%
same,inhibition of growth at 0.003 %,"Verticillium dahliae; Wirkstoffkonzentration 0,003 %",100%
same,inhibition of growth at 0.01 %,"Venturia inaegualis; Wirkstoffkonzentration 0,01 %",100%
same,inhibition of growth at 0.003 %,"Venturia inaegualis; Wirkstoffkonzentration 0,003 %",100%
